In US4367216A, “Triiodinated 5-aminoisophthalic acid derivatives” (Schering Aktiengesellschaft, priority 1979, dated 1983):

Legend:
[1] = dimeglumine salt; cited from earlier work
[2] = cited from earlier work
[3] = system: lymphatic system; conditions: cited from earlier work
[4] = Stability to light and air (iodine cleavage); type: physicochemical; conditions: comparison table of A, B and C
[5] = system: lymphatic system of dogs; assay: Lymphography comparison of A, B and C after direct and indirect administration; type: in vivo
Procedure: The following table compares the advantageous effects of the compounds of this invention in lymphography, using as test substances thiodipropionic acid bis[3,5-bis-(2,3-dihydroxypropyl-N-methylcarbamoyl)-2,4,6-triiodoanilide] (A) and 4,4,6,6-tetramethyl-4,6-disila-5-oxanonanedioic acid bis[3,5-bis(2,3-dihydroxypropyl-N-methylcarbamoyl)-2,4,6-triiodoanilide] (B) in comparison with the fatty acid ethyl ester of iodinated oleum papaveris (C). The test results were determined on dogs using testing methods conventional in lymphography after direct and indirect administration.

[6] = dogs, direct and indirect administration

SMILES: CNC(=O)c1c(I)c(NC(=O)CCCCC(=O)Nc2c(I)c(C(=O)O)c(I)c(C(=O)NC)c2I)c(I)c(C(=O)O)c1I [iocarmic acid]
- Concentration in the urine [1]: increased
- Osmotic pressure compared with monomers ([2]; dimeglumine salt): somewhat lower osmotic pressure

SMILES: CC(=O)Nc1c(I)c(C(=O)N[C@H]2C(O)O[C@H](CO)[C@@H](O)[C@@H]2O)c(I)c(N(C)C(C)=O)c1I (stereo partly drawn) [metrizamide]
- Usefulness for lymphography ([3]; in vivo): useless for lymphography
- Osmotic pressure ([2]; solution of 300 mg iodine/ml, blood 7.5 atmospheres): 12 atmospheres

SMILES: CC(=O)NCc1c(I)c(NC(C)=O)c(I)c(C(=O)O)c1I [iodamide]
- Compatibility ([3]; crystalline suspensions, inflammation at the injection site and in the lymphatic system): insufficient compatibility
- Excretion period ([3]; in vivo): days to weeks

SMILES: CN(CC(O)CO)C(=O)c1c(I)c(NC(=O)CCSCCC(=O)Nc2c(I)c(C(=O)N(C)CC(O)CO)c(I)c(C(=O)N(C)CC(O)CO)c2I)c(I)c(C(=O)N(C)CC(O)CO)c1I (stereo not drawn) [A, thiodipropionic acid bis[3,5-bis-(2,3-dihydroxypropyl-N-methylcarbamoyl)-2,4,6-triiodoanilide]]
- Stability [4]: Stable
- Compatibility (embolism) ([5]; dog, in vivo): No Embolisms
- Residence Time in the Body ([5]; dog, in vivo): Hours

SMILES: CN(CC(O)CO)C(=O)c1c(I)c(NC(=O)CC[Si](C)(C)O[Si](C)(C)CCC(=O)Nc2c(I)c(C(=O)N(C)CC(O)CO)c(I)c(C(=O)N(C)CC(O)CO)c2I)c(I)c(C(=O)N(C)CC(O)CO)c1I (stereo not drawn) [B, 4,4,6,6-tetramethyl-4,6-disila-5-oxanonanedioic acid bis[3,5-bis(2,3-dihydroxypropyl-N-methylcarbamoyl)-2,4,6-triiodoanilide]]
- Stability [4]: Stable
- Compatibility (embolism) [5, 6]: No Embolisms
- Residence Time in the Body [5, 6]: Hours
